Laboratory results reported in ChEMBL document CHEMBL3351757, “Design and synthesis of novel and highly-active pan-histone deacetylase (pan-HDAC) inhibitors” (Bioorg Med Chem, 2014).

Assays:
[1] = molecular target: T1, Histone deacetylase (Rattus norvegicus) (UniProt Q6P6W3+Q99P99+Q99P96+Q4QQW4+Q99P97+Q5RJZ2+B1WBY8); conditions: at 10 µM
Description: Inhibition of rat liver HDAC at 10 uM pre-incubated for 15 mins before Boc-Lys(Ac)-AMC substrate addition and measured after 30 mins by fluorometry

[2] = molecular target: T1, Histone deacetylase (Rattus norvegicus); conditions: at 0.1 µM
Description: Inhibition of rat liver HDAC at 0.1 uM pre-incubated for 15 mins before Boc-Lys(Ac)-AMC substrate addition and measured after 30 mins by fluorometry

Row | SMILES | inhibition [1] [%] | inhibition [2] [%]
1 | CN1C(=O)CCc2cc(C(=O)NCCCCCCC(=O)NO)ccc21 | 99 | 51
2 | CC1(C)CC(=O)Nc2ccc(S(=O)(=O)NCCCCCCC(=O)NO)cc21 | 94 | 17
3 | CC1(C)CC(=O)Nc2cc(C(=O)NCc3cccc(/C=C/C(=O)NO)c3)ccc21 | 96 | 27
4 | O=C(CCCCCOc1cccc2ccc(=O)[nH]c12)NO | 86 | 7
5 | CN1C(=O)CC(C)(C)c2cc(NC(=O)CCCCCCC(=O)NO)ccc21 | 98 | 55
6 | CC1(C)CC(=O)Nc2c(F)cc(C(=O)NCCCCCCC(=O)NO)cc21 | 99 | 57
7 | O=C(CCCCCOc1ccc2ccc(=O)[nH]c2c1)NO | 93 | 21
8 | CCOC1=Nc2ccc(NC(=O)CCCCCCC(=O)NO)cc2C(C)(C)C1 | 97 | 42
9 | O=C(CCCCCCNS(=O)(=O)c1ccc2c(c1)CCC(=O)N2)NO | 94 | 15
10 | O=C(CCCCCOc1ccc2c(c1)CCC(=O)N2)NO | 91 | 13
11 | O=C(CCCCCNC(=O)c1ccc2c(c1)CCC(=O)N2)NO | 94 | 21
12 | O=C(CCCCCOc1ccc2[nH]c(=O)ccc2c1)NO | 94 | 19
13 | O=C(CCCCCCC(=O)Nc1ccc2oc(=O)ccc2c1)NO | 98 | 46
14 | CC1(C)CC(=O)Nc2cc(OCCCCCC(=O)NO)ccc21 | 91 | 11

The next lines start with the values.

Row | inhibition [1] [%] | inhibition [2] [%] | SMILES
15 | 91 | 11 | O=C(CCCCCCS(=O)(=O)Nc1ccc2c(c1)CCC(=O)N2)NO
16 | 80 | 4 | O=C(CCCCCOc1cccc2c1NC(=O)CC2)NO
17 | 94 | 18 | O=C(CCCCCCNS(=O)(=O)c1ccc2[nH]c(=O)ccc2c1)NO
18 | 98 | 40 | O=C(CCCCCCCNC(=O)c1ccc2c(c1)CCC(=O)N2)NO
19 | 99 | 49 | CC1(C)CC(=O)Nc2c(F)cc(NC(=O)CCCCCCC(=O)NO)cc21
20 | 95 | 24 | O=C(CCCCCC(=O)Nc1ccc2c(c1)CCC(=O)N2)NO
21 | 91 | 13 | O=C(CCCCCOc1ccc2c(c1)NC(=O)CC2)NO
22 | 86 | 7 | O=C(CCCCCOc1cccc2c1CCC(=O)N2)NO
23 | 91 | 12 | O=C(CCCCCOc1ccc2oc(=O)ccc2c1)NO
24 | 99 | 52 | COC1=Nc2ccc(NC(=O)CCCCCCC(=O)NO)cc2C(C)(C)C1
25 | 99 | 63 | CC1(C)CC(=O)Nc2cc(C(=O)NCCCCCCC(=O)NO)ccc21
26 | 65 | 9 | O=C(CCCOc1ccc2c(c1)CCC(=O)N2)NO
27 | 88 | 11 | CC1(C)CC(=O)Nc2ccc(OCCCCCC(=O)NO)cc21
28 | 97 | 30 | O=C(CCCCCCCC(=O)Nc1ccc2c(c1)CCC(=O)N2)NO
